These results are taken from patent US20030105121A1, “Method of preventing lipodystrophy syndrome or reversing a pre-existing syndrome in HIV-infected patients being treated with antiretroviral agents” (priority 1999, published 2003).

For data set [1], the system named is HIV. Type of data set: in vivo. To be noted: four continuously undetectable patients, last six months of the study. An excerpt: (§1) Because individual examples of treatment histories are of little value in discerning the effectiveness of a given treatment for HIV/AIDS infections, and especially effectiveness in reducing the likelihood of developing a highly variable side effect such as lipodystrophy, due among other things to wide differences in the initial extent of the infection as well as in the response of any given individual, a group of 85 different cases will be evaluated as a group in the following discussion. This number is believed to be a sufficiently large statistical sample to permit a reasonable judgment to be made of the effectiveness of the treatment of this invention.
The medication status of the group at the time of initiation of PI treatment was as follows: Due to historical circumstances, i.e. the predilection in view of the earlier patent of the applicant to treating HIV/AIDS patients with naltrexone, all individuals of the group were already receiving naltrexone at the low dosage level. Based on blood count of […] lymphocytes, individual clinical history and personal patient preference, 60 had already been receiving, or were started on, lamivudine (NA) while 49 of the 65 were also receiving zidovudine (NA) and 4 of the 69 were receiving a combination of lamivudine and stavovudine, bearing in mind that the NA group of antivirals had been available for the longest time. […]

For data set [2] the following is noted: human, in vivo.
Description: as §1
The medication status of the group at the time of initiation of PI treatment was as follows: Due to historical circumstances, i.e. the predilection in view of the earlier patent of the applicant to treating HIV/AIDS patients with naltrexone, all individuals of the group were already receiving naltrexone at the low dosage level. Based on blood count of […] lymphocytes, individual clinical history and personal patient preference, 60 had already been receiving, or were started on, lamivudine (NA) while 49 of the 65 were also receiving zidovudine (NA) and 4 of the 69 were receiving a combination of lamivudine and stavovudine, bearing in mind that the NA group of antivirals had been available for the longest time. […] Patients already on any of the NA agents, as just specified, were continued on this treatment during the study. The remaining 25 were receiving no medications (other than naltrexone) at the start of the study.

Data set [3] relates to HIV. Nature of the data set: Experience with low dose naltrexone treatment of HIV. Type of data set: in vivo, human. As to conditions: low dose naltrexone alone. An excerpt: I have already disclosed in U.S. Pat. No. 4,888,346, issued Dec. 19, 1989, as a continuation of Ser. No. 06/916,180, filed Oct. 7, 1986, the administration of an essentially pure opiate receptor antagonist at a low dose level to patients suffering from acquired immune deficiency syndrome (or AIDS) in any of its known states, including AIDS-related complex. For this treatment, the amount of the essentially pure opiate receptor antagonist was required to be at a quite low level corresponding in results to those obtained by the administration of Naltrexone at a dosage level of from 1.0 mg. to 10 mg., preferably at a dosage level of 1.0 mg. to about 5 mg., and most preferably up to about 3.0 mg, all per day. At dosage levels above about 10 mg. per day, not only were the desired therapeutic results not obtained but the effect of the treatment appeared to be negative in acerbating the disease.

In the next data set the test system is lipodystrophy. Nature of the data set: Case histories (Examples a-g): LDN treatment of pre-existing lipodystrophy. Type of data set: in vivo, human. To be noted: for serum cholesterol after resuming naltrexone: Example a nine months (from 270), Example d 12 months (from 360). The text has this: One will have noted that the above case experience was entirely focused on limiting the risk of patients who were at the time free of lipodystrophy symptoms developing such symptoms during their antiretroviral therapy. This is explained by the fact that due to historical circumstances, i.e. the only recent introduction of antiretroviral therapy, the patients in this group were all being treated with naltrexone as described before being exposed to antiretroviral therapy. […] This was not anticipated and is considered to be a quite surprising finding.

A short description of data set [4]: Long experience with low dose naltrexone: side effects. In kind it is in vivo, human. Here is the method:
Long experience has shown the perhaps three percent (3%) of patients receiving the drug at a 4.5 mg. dosage per day may suffer sleep disturbance lasting more than two or three days. Where this has been observed, reduction of the dosage to 3.0 mg. generally returns the sleep pattern to normalcy.

For the next data set, the system named is lipodystrophy syndrome. As to conditions: in vivo; cited from earlier work.
[5] abbreviates: 3.0 mg qhs added to ARV, single cases.
Where [6] appears, read: 3.0 mg qhs added to ARV, single cases, listed as LDN.

“Also recorded” adds a separate entry of the source.

`Cc1c(O)cccc1C(=O)N[C@@H](CSc1ccccc1)[C@H](O)CN1C[C@H]2CCCC[C@H]2C[C@H]1C(=O)NC(C)(C)C` [nelfinavir]: the “change in viral levels after substitution of indinavir” value in the data set with HIV [1] is listed as “did not result in any appreciable change in viral levels”. In data set [2], the “side effect associated with the drug” value was “persistent diarrhea”.

Take `Cc1ccnc2c1NC(=O)c1cccnc1N2C1CC1` [nevirapine]: the “patients developing body-wide allergic rashes with hives and itching” value in data set [2] is listed as “Seven”.

Consider `O=C1CC[C@@]2(O)[C@H]3Cc4ccc(O)c5c4[C@@]2(CCN3CC2CC2)[C@H]1O5` [naltrexone, Naltrexone], for which the “effect on the patient's HIV condition” value with HIV [3] is on record as “stabilizing effect”. Also, the “serum triglycerides after resuming LDN” value in the data set on lipodystrophy (3.0 mg qhs added to ARV, 12 months, from 620) is reported as 140. For the same compound, the “reduction of "buffalo hump"” value in the data set with lipodystrophy (3 mg qhs added to ARV, nine months) was “about 50%”. Besides, the “serum cholesterol after resuming naltrexone” value with lipodystrophy (3 mg qhs added to ARV) turned out to be 190; in the data set on lipodystrophy (3 mg qhs added to ARV, listed as LDN), 220. Also, the “other physical signs (subcutaneous tissue, breast size)” value is given as “returned” in the data set with lipodystrophy (setting [5]) and “about one-half” in the data set with lipodystrophy (setting [6]). The waist size outcome in the data set with lipodystrophy (setting [5]) is given as “gradually reduced to its former size; also recorded: returned to their previous normal state”; in the data set on lipodystrophy (setting [6]), “partially cleared by about one-half”. In addition, in the data set with lipodystrophy (4.5 mg qhs added to ARV, eight weeks), the “decrease in waist size” value is 4 ″. For the same compound, the insulin need in the data set on lipodystrophy (4.5 mg qhs added to ARV, four weeks, from 90 units) is reported as 20 units per day. Further, the waist size in the data set on lipodystrophy (4.5 mg qhs added to ARV, three months, from 44″) is listed as 40 ″. In addition, the “"buffalo hump" outcome” value in the data set on lipodystrophy (3.0-4.5 mg qhs added to ARV, single cases) was “completely disappeared; also recorded: shrank and eventually disappeared”; with lipodystrophy (3.0-4.5 mg qhs added to ARV, single cases, listed as LDN), “about one-half; also recorded: largely disappeared”. Besides, the “signs of lipodystrophy overall” value with lipodystrophy (3.0-4.5 mg qhs added to ARV, single cases, about eight months, listed as LDN) was “gradually disappeared; also recorded: complete reversal; also recorded: gradual clearing in the residual signs”. Moreover, the “patients with sleep disturbance lasting more than two or three days” value in data set [4] (4.5 mg. dosage per day) is around 3%. In addition, the “side effects or toxicity” value in data set [4] (low dose levels) was “minimal side effects or evidence of toxicity”.

With `Cc1cn([C@H]2C=C[C@@H](CO)O2)c(=O)[nH]c1=O` [zerit, stavudine], the “rate or risk of lipodystrophy” value in the data set with lipodystrophy syndrome is reported as “at least 40%”.

As to `CC(C)(C)NC(=O)[C@@H]1CN(Cc2cccnc2)CCN1C[C@@H](O)C[C@@H](Cc1ccccc1)C(=O)N[C@H]1c2ccccc2C[C@H]1O` [indinavir], the persistent side effects entry in data set [2] was “mild nausea”.
